One may read the LD50 as the dose expected to kill half of the subjects tested. What is called ED50 is the dose at which the effect has come halfway, by size or by number of responders.

Like-named read-outs stand apart in the source and are kept apart here.

This is an account of results in patent US4563470A, “N-Substituted α,ωamino and imino-sulfonic acid salts and their application as cationic vectors of high cellular penetration” (Les Laboratories Meram, priority 1982, dated 1986).

One data set is described as follows: in vivo. The note with it: mouse, in vivo; for selectivity ratio: B/P ratio (oral LD50 / i.p. LD50). How it is done:
(§1) The study is carried out with Swiss I.O.P.S. mice, in lots of 20 animals of both sexes.

The next data set has as its system Swiss I.O.P.S. mice. Briefly: in vivo. The note with it: Swiss I.O.P.S. mouse; for LD50 by gastric tubage (B): oral. The protocol:
as §1

The nature of the next data set: Solubility. It counts as physicochemical. Conditions: for solubility in alcohol / ethanol: alcohol or ethanol.
A short description of data set [1]: Acute toxicity LD50 oral vs i.p. and B/P ratio, sodium salts (species not restated). Conditions: for selectivity ratio / LD50: in vivo. It counts as in vivo. An excerpt:
While the ratio for the reference salt, sodium chloride, is greater than 205.4/61.2=3.36, it is, for the imino compounds of Examples 1 and 5 7.0/3.0=2.33 and 6.7/4.4=1.52, respectively, and, for the amino compounds of Examples 2 and 6 (while not strictly determined but without doubt greater than 1), respectively greater than 20.1/20.1=1 and greater than […].

The subject of the next data set is insulin. Description: Potentiation of the hypoglycemic activity of insulin (test of Macallum et al.). Conditions: oral; summary of insulin potentiation and kainic acid tests. It counts as in vivo, rabbit. The protocol:
By way of example, the compounds are tested, on one hand by the test of Macallum et al., Can.

A short description of data set [2]: Therapeutic use in a patient with latent tetany by magnesium deficiency. It counts as in vivo, human. How it is done: was attacked by latent tetany by magnesium deficiency. They were treated for two years by various forms of magnesotherapy: 3 g magnesium lactate per day or three drinkable ampoules of magnesium pyroglutamate (standardised 127 mg Mg^2+ per ampoule) per day, without succeeding in correcting an erythrocyte magnesium level varying from 43 to 46 mg/l. A prescription of 3 gelatine-coated pills of the compound of Example 13 led to a regression of […] (headache, asthenia, cramp) and the increase, to 48 mg/l in the first month and to 53 mg/l in the second month, of the erythrocyte magnesium level. Ultimately, it was nevertheless observed that each interruption in administration of the product was followed, in the subsequent chemical and biological monthly control, by a relapse (comprising the symptomotology and reduction of the erythrocyte magnesium level to about 45 mg/l).

Data set [3] can be described thus: Acute toxicity LD50 oral vs i.p. and B/P ratio, rat. It counts as in vivo. Conditions: in vivo, Sprague-Dawley I.O.P.S. rat. An excerpt: It has been determined that this discovery is not appropriate to a particular animal, by making the same observation for the Sprague-Dawley I.O.P.S. rat where the B/P ratio for magnesium chloride is greater than […]. For the respective compounds of Examples 13 and 14, the ratio is reduced in a most significant manner (p<0.001), to 3.3/2.2=1.5 and […].

For data set [4], the system named is Sprague-Dawley I.O.P.S. rats. Description: Oral magnesium recharge in magnesium-deficient rats. It counts as in vivo, rat (Sprague-Dawley I.O.P.S.). Conditions: for onset of correction of erythrocyte magnesium: 40, 20 or 5 mg magnesium/kg/day; for aggression of deficient rats with respect to mice (muricide activity): magnesium-deficient rats (25 ppm Mg); for erythrocyte magnesium level (hypercorrection): third day, deficient animals 40 mg, controls 60 mg.

A short description of data set [5]: Test of Frances et al. (ED50 rolling, trembling).
Where [6] appears, read: ip, LD50 i.p. (P), Swiss I.O.P.S. mouse.
Where [7] appears, read: po, LD50 by gastric tubage (B), Swiss I.O.P.S. mouse.
The mark [8] stands for this setting: oral, read-out: LD50 by gastric tubage (B).
Where [9] appears, read: one patient, 3 gelatine-coated pills (750 mg, 32 mg Mg ion daily).
[10] abbreviates: ip, i.p., read-out: LD50 i.p. (P).

Take `Cc1ncc(CO)c(C=NCCCS(=O)(=O)O)c1O` [Example 12, Calcium γ-(3-hydroxy-5-hydroxymethyl-2-methyl-4-pyridylmethyleneimino)propanesulfonate]: the results for the LD50 in the data set “in vivo” (setting [6]) and in the data set “in vivo” (setting [7]) were 2400 µmol/kg and 8100 µmol/kg, respectively. The “B/P ratio (oral LD50 / i.p. LD50)” value in the data set on Swiss I.O.P.S. mice is 3.3. In the data set “Solubility” (acetone), the solubility in acetone entry was “Insoluble”. Moreover, the solubility in methanol entry in the data set “Solubility” is “Soluble”. Also, the solubility in water result in the data set “Solubility” (water) is given as “Soluble”.

Consider `[Cl-].[K+]` [potassium chloride, reference compound], for which, in the data set with Swiss I.O.P.S. mice, the “B/P ratio (oral LD50 / i.p. LD50)” value is listed as above 7.25 and the “LD50 by gastric tubage (B)” value is given as “greater than 107.3 mmol/kg”.

Turning to `Cc1ncc(CO)c(C=NCCCS(=O)(=O)O)c1O` [Example 7, Potassium γ-(3-hydroxy-5-hydroxymethyl-2-methyl-4-pyridylmethyleneimino)propanesulfonate], in the data set on Swiss I.O.P.S. mice, the “B/P ratio (oral LD50 / i.p. LD50)” value worked out at 1.75 and the “LD50 by gastric tubage (B)” value is 7.0 mmol/kg. In addition, the solubility in acetone entry in the data set “Solubility” (acetone) is on record as “Insoluble”. In “Solubility” (water), the solubility in water entry was “Soluble”.

Take `Cc1ncc(CO)c(C=NCCS(=O)(=O)O)c1O` [Example 3, Potassium β-(3-hydroxy-5-hydroxymethyl-2-methyl-4-pyridylmethyleneimino)ethanesulfonate]: in the data set on Swiss I.O.P.S. mice, the “B/P ratio (oral LD50 / i.p. LD50)” value was determined as 1.79 and the “LD50 by gastric tubage (B)” value is reported as 7.0 mmol/kg.

In the case of `Cc1ncc(CO)c(C=NCCCS(=O)(=O)O)c1O` [Example 5, Sodium γ-(3-hydroxy-5-hydroxymethyl-2-methyl-4-pyridylmethyleneimino)propanesulfonate], the solubility in acetone entry in “Solubility” (acetone) is “Insoluble”. In addition, the “solubility in alcohol / ethanol” value in “Solubility” was “Insoluble”. In addition, the solubility in water entry in “Solubility” (water) is “Soluble”. The selectivity ratio in data set [1] is 1.52. Besides, the LD50 in [1] (ip, read-out: LD50 i.p. (P)) is 4400 µmol/kg; in data set [1] (setting [8]) it was 6700 µmol/kg.

For vitamin B6, in the data set on insulin, the “oral activity after the metabolic and neurologic tests” value was “inactive”.

In the data set “in vivo” (ip), `Cc1ncc(CO)c(C=NCCS(=O)(=O)O)c1O` [Example 13, Magnesium β-(3-hydroxy-5-hydroxymethyl-2-methyl-4-pyridylmethyleneimino)ethanesulfonate] showed an LD50 of 2800 µmol/kg. In addition, the LD50 in the data set “in vivo” (po) was 3300 µmol/kg. Moreover, the “B/P ratio (oral LD50 / i.p. LD50)” value with Swiss I.O.P.S. mice was determined as 1.17. Also, the “activity in controlling magnesium deficiency versus conventional magnesium salts” value in data set [2] (750 mg daily (32 mg Mg ion) vs conventional magnesium salts at doses 10 times larger) is “more active”. In addition, the “symptoms (headache, asthenia, cramp)” value in data set [2] (one patient, 3 gelatine-coated pills) is recorded as “regression”. Besides, in data set [2] (setting [9]), the “erythrocyte magnesium level, first month” value came out at 48 mg/L and the “erythrocyte magnesium level, second month” value worked out at 53 mg/L. Besides, the “erythrocyte magnesium level after interruption of administration” value in data set [2] (one patient, relapse at subsequent monthly control) is listed as “about 45 mg/l”. In the data set “Solubility”, the solubility in methanol entry is recorded as “Insoluble”. The LD50 in data set [3] (setting [10]) came out at 2200 µmol/kg. In data set [3], the selectivity ratio is 1.5. In addition, the LD50 in data set [3] (setting [8]) came to 3300 µmol/kg. Besides, in data set [4], the “onset of hypercorrection of erythrocyte magnesium” value is “third day”, the “onset of correction of erythrocyte magnesium” value is listed as “first day”, the “aggression of deficient rats with respect to mice (muricide activity)” value was “reduced aggression” and the “erythrocyte magnesium level (hypercorrection)” value is recorded as 79.2 mg.

Consider `Cc1ncc(CO)c(CNCCS(=O)(=O)[O-])c1O.[K+]`, for which the selectivity ratio in “in vivo” (Swiss I.O.P.S. mouse) turned out to be 1.2. The LD50 in “in vivo” (setting [6]) amounted to 13000 µmol/kg; in “in vivo” (setting [7]), 15700 µmol/kg. The solubility in acetone entry in “Solubility” is “Insoluble”. In addition, the solubility in water entry in the data set “Solubility” is “Soluble”.

Consider `Cc1ncc(CO)c(C=NCCS(=O)(=O)O)c1O` [Example 11, Calcium β-(3-hydroxy-5-hydroxymethyl-2-methyl-4-pyridylmethyleneimino)ethanesulfonate], for which the LD50 in “in vivo” (setting [6]) came out at 2600 µmol/kg; in the data set “in vivo” (setting [7]), 7700 µmol/kg. Also, the “B/P ratio (oral LD50 / i.p. LD50)” value with Swiss I.O.P.S. mice is 2.96.

Regarding `[Ca+2].[Cl-].[Cl-]` [CaCl2, reference compound], in the data set with Swiss I.O.P.S. mice, the “B/P ratio (oral LD50 / i.p. LD50)” value is above 9.2 and the “LD50 by gastric tubage (B)” value is “greater than 36.5 mmol/kg”.

Regarding `Cc1ncc(CO)c(CNCCCS(=O)(=O)[O-])c1O.[Na+]`, the solubility in acetone entry in “Solubility” (acetone) is on record as “Insoluble”. Besides, the solubility in water result in the data set “Solubility” (water) is “Soluble”. Besides, the selectivity ratio in [1] was above 1.43. The LD50 in [1] (ip, read-out: LD50 i.p. (P)) was 13000 µmol/kg; in data set [1] (setting [8]), above 19200 µmol/kg.

In the case of `Cc1ncc(CO)c(CNCCCS(=O)(=O)[O-])c1O.[K+]`, the selectivity ratio in the data set “in vivo” (Swiss I.O.P.S. mouse) is 1.19. For the same molecule, the values for the LD50 in the data set “in vivo” (setting [6]) and in “in vivo” (setting [7]) were 14200 µmol/kg and 17000 µmol/kg, respectively. The solubility in acetone entry in the data set “Solubility” is recorded as “Insoluble”. In “Solubility”, the solubility in water entry was “Soluble”. The ED50 in data set [5] (read-out: ED50 rolling) and in data set [5] (read-out: ED50 trembling) was 270 µmol/kg each time. Further, in data set [5] (test of Frances et al.), the “activity relative to taurine” value came to 17 times.

With `[Cl-].[Na+]` [sodium chloride, reference compound], in data set [1], the “B/P ratio (oral LD50 / i.p. LD50)” value was above 3.36. Moreover, the “LD50 by gastric tubage (B)” value in [1] (oral) was “greater than 205.4 mmol/kg”.

`Cc1ncc(CO)c(CNCCS(=O)(=O)[O-])c1O.[Li+]`: in the data set “Solubility”, the solubility in acetone entry is recorded as “Insoluble” and the solubility in water entry is on record as “Soluble”.

As for `Cc1ncc(CO)c(CNCCS(=O)(=O)[O-])c1O.[Na+]` [Example 2, Sodium β-(3-hydroxy-5-hydroxymethyl-2-methyl-4-pyridylmethylamino)ethanesulfonate], in “Solubility” (acetone), the solubility in acetone entry is listed as “Insoluble”. Moreover, in “Solubility”, the solubility in methanol entry is given as “Poorly soluble”. In the data set “Solubility” (water), the solubility in water result is listed as “Soluble”. In data set [1], the selectivity ratio was above 1. The LD50 was 20100 µmol/kg in data set [1] (ip, read-out: LD50 i.p. (P)) and above 20100 µmol/kg in [1] (setting [8]).

As to `Cc1ncc(CO)c(C=NCCS(=O)(=O)O)c1O` [Example 1, Sodium β-(3-hydroxy-5-hydroxymethyl-2-methyl-4-pyridylmethyleneimino)ethanesulfonate], the “solubility in alcohol / ethanol” value in “Solubility” is on record as “Insoluble”. In [1], the selectivity ratio was found to be 2.33. Besides, the LD50 in data set [1] (ip, read-out: LD50 i.p. (P)) was found to be 3000 µmol/kg; in data set [1] (setting [8]), 7000 µmol/kg.

For the molecule `Cc1ncc(CO)c(C=NCCCS(=O)(=O)O)c1O` [lithium γ-(3-hydroxy-5-hydroxymethyl-2-methyl-4-pyridylmethy] [lithium γ-(3-hydroxy-5-hydroxymethyl-2-methyl-4-pyridylmethyleneimino)propanesulfonate], the solubility in acetone result in the data set “Solubility” (acetone) is recorded as “insoluble”. In addition, the solubility in water entry in “Solubility” (water) is listed as “soluble”.

In “in vivo” (ip), `Cc1ncc(CO)c(C=NCCCS(=O)(=O)O)c1O` [Example 14, Magnesium γ-(3-hydroxy-5-hydroxymethyl-2-methyl-4-pyridylmethyleneimino)propanesulfonate] displayed an LD50 of 3300 µmol/kg. The LD50 in the data set “in vivo” (po) is 4100 µmol/kg. The “B/P ratio (oral LD50 / i.p. LD50)” value with Swiss I.O.P.S. mice came to 1.24. Besides, the solubility in acetone entry in the data set “Solubility” (acetone) is reported as “Insoluble”. In addition, the solubility in methanol entry in the data set “Solubility” is “Insoluble”. Besides, the solubility in water entry in the data set “Solubility” (water) is on record as “Soluble”. Moreover, the LD50 in data set [3] (setting [10]) was found to be 2400 µmol/kg. In addition, the selectivity ratio in [3] came out at 1.66. Also, the LD50 in data set [3] (setting [8]) was 4200 µmol/kg. Moreover, in data set [4], the “onset of hypercorrection of erythrocyte magnesium” value was “third day”, the “onset of correction of erythrocyte magnesium” value is “first day”, the “aggression of deficient rats with respect to mice (muricide activity)” value was “reduced aggression” and the “erythrocyte magnesium level (hypercorrection)” value turned out to be 75.8 mg.

As to `Cc1ncc(CO)c(CNCCCS(=O)(=O)[O-])c1O.[Li+]`, in the data set “Solubility”, the solubility in acetone entry is reported as “insoluble” and the solubility in water entry is reported as “soluble”.

Take `Cc1ncc(CO)c(C=NCCS(=O)(=O)O)c1O` [Example 9, Lithium β-(3-hydroxy-5-hydroxymethyl-2-methyl-4-pyridylmethyleneimino)ethanesulfonate]: in “Solubility” (acetone), the solubility in acetone result is on record as “Insoluble”. Further, the solubility in water entry in the data set “Solubility” (water) is “Soluble”.
